Experimental data reported in patent publication US20060263403A1, “Compositions and methods for controlling insects involving the tyramine receptor” (priority 2003, published 2006).
Where two headings read alike, the source gives them in different places.

Experiments:
[1] = system: tyramine receptor mutant (TyrR^neo30) Drosophila melanogaster; format: in vivo; conditions: for toxicity against TyrR^neo30 strain compared with wild type: topical application
Description: (§1) Quantitative Structure Activity Relationships (QSARs) for five monoterpenoid plant essential oils is determined against wild type and tyramine receptor mutant (TyrR^neo30) Drosophila melanogaster strains. […] In addition, monocyclic-unsaturated alcohol (a-terpenoil), and a monocylic di-unsaturated ketone (L-carvone) are also tested. […] Acetonic solutions of plant essential oils are prepared and different concentrations of each, that gave from 10%-100% mortality, are applied by topical application. Three replicates, with 5 flies per replicate, are used for each concentration. Controls treated with the same volume (0.5 μl/fly) of acetone. […] To determine whether the tyramine receptor is involved in the toxicity of tested plant essential oils, tyramine receptor mutant (TyrR^neo30) Drosophila melanogaster strain is topically treated with a dose equivalent to the determined LD50 for wild type strain. The mortality is calculated 24 hrs after treatment. Three replicates and 5 insects per replicate are used for the bioassay of each chemical. This bioassay is repeated five times.

[2] = biological target: T1, Drosophila melanogaster tyramine receptor (TyrR) (Drosophila melanogaster, UniProt P22270, C261Y); assay: cell-based; format: cell-based; conditions: for decrease in cAMP production: 25 μM, vs ethanol-treated cells 0.9056±0.078 pmol cAMP
T1 construct: The open reading frame encodes a protein of 601 amino acids; expressed in transfected cells
Description: (§2) Twenty four hours before cell treatment, 300,000 cells from clone#2 and control cells are plated in 1 ml media with 25 μg blasticidin/ml into 12 well dishes (4.5 cm^2). For cell treatment, the media is aspirated and 1 ml PBS with 300 μM IBMX (3-isobutyl-1-methylxanthine) and the test reagent is added. […] After 10 min incubation, the PBS is aspirated and cells are incubated with 70% ethanol for 12 hours at −20° C. The cellular debris is centrifuged, and then the supernatant is removed and lyophilized to dryness. The amount of cAMP in the extract is determined by using a cAMP binding protein from the ^3H-cAMP Biotrak Assay System (Amersham Biosciences, Piscataway, N.J.) as per the manufacturer's instructions. Cell treatment is performed 3 times with duplicates at each concentration. To test the effects of calcium chelation on cAMP levels, the cells are incubated with 20 μM BAPTA/AM for 10 min before the addition of TA.

[3] = biological target: T1, Drosophila melanogaster tyramine receptor (TyrR); assay: Intracellular calcium assay (Fura-2 AM) in S2 cells stably expressing pAC-TyrR; format: cell-based; conditions: for change in [Ca2+]i in response to plant essential oil: 25 μM, compared to EtOH treatment
Description: (§3) Cells are washed once with insect saline buffer. Cells are collected by scraping and suspended at 1×10^6 cells/ml in insect saline buffer with 5 μM Fura-2 AM. Cells are incubated at 23° C. for 1 hr in the dark, centrifuged, suspended in 1 ml insect saline buffer, and used immediately for calcium measurements. […] This assay is performed four separate times. Data are normalized by dividing each value by the background fluorescence at the beginning of the assay before adding test ligand.

[4] = system: wild type Drosophila melanogaster; assay: Topical toxicity bioassay against wild type Drosophila melanogaster fly; format: in vivo; conditions: for Wild type-calculated LD50 values: topical application, probit analysis; for % Mortality at LD50 of wild type Drosophila melanogaster strain: Wild type: topical dose equal to wild type LD50, 24 h after treatment
Description: as §1

[5] = biological target: T1, Drosophila melanogaster tyramine receptor (TyrR); assay: biochemical; format: binding
Description: All steps are performed at 4° C. or on ice. Cells grown in Drosophila media are harvested in the same media by scraping from the dishes and then rinsing dishes with PBS. The cells are centrifuged at 1000 g for 3 min, washed once with PBS and centrifuged again as previously described. The cells are suspended in ice cold hypotonic buffer (10 mM Tris-Cl, pH 7.4), incubated on ice for 10 min, and lysed using a glass dounce homogenizer and tight glass pestle (Kontes Glass Co., Vineland, N.J.) with 10 strokes. Nuclei are pelleted by centrifugation at 600 g for 5 min. The supernatant is decanted and centrifuged at 30,000 g for 30 min to pellet a crude membrane fraction. The pellet is suspended in binding buffer (50 mM Tris-Cl, 5 mM MgCl2, pH 7.4). Protein concentration is determined by the Bradford Assay (Bio-Rad Laboratories, Hercules, Calif.). Membranes are frozen on dry ice then stored at −75° C. in aliquots.
For the receptor binding assay, radioligand binding is performed in 500 μl binding buffer containing 10-50 μg membrane protein and 4 nM ^3H-tyramine. The binding reaction is incubated at 23° C. in the presence and absence of 10 μM unlabeled tyramine. Reactions are terminated after 60 min by addition of 3 ml ice cold binding buffer and filtered over GF/C filters that has been soaked for 30 min in 0.3% polyethylenimine. Filters are rinsed one additional time with 3 ml binding buffer. […] The binding activity of tyramine receptor is also studied in the presence and absence of five plant essential oils, shown in FIG. 1. Binding data is analyzed by Scatchard plots using the software GraphPad Prism (San Diego, Calif.). All binding analyses are performed 3 times with duplicate samples in each assay.
The binding activity of ^3H-tyramine to membranes expressing the tyramine receptor is performed in the presence and absence of five plant essential oils. These chemicals are selected based on their insecticidal activity and the absence or presence and location of the hydroxyl group within the molecule. […] The specific activity is calculated as the difference between counts in the presence and absence of test chemical.

[6] = system: S2 cells transfected with plasmid lacking TyrR; assay: cAMP assay in control S2 cells transfected with plasmid lacking TyrR; format: cell-based, Drosophila melanogaster; conditions: TA up to 100 μM, compared to non-transfected cells
Description: as §2

[7] = system: S2 cells transfected with pAC lacking an insert; assay: Intracellular calcium assay in S2 cells transfected with pAC lacking an insert; format: cell-based, Drosophila melanogaster; conditions: 10 μM TA, compared to untransfected S2 cells
Description: as §3

[8] = biological target: T1, Drosophila melanogaster tyramine receptor (TyrR); conditions: saturation binding, 0.1-30 nM 3H-tyramine, membranes of clone#2 S2 cells; read-out: Kd for specific binding

T1 sequence (P22270 27-601 C261Y): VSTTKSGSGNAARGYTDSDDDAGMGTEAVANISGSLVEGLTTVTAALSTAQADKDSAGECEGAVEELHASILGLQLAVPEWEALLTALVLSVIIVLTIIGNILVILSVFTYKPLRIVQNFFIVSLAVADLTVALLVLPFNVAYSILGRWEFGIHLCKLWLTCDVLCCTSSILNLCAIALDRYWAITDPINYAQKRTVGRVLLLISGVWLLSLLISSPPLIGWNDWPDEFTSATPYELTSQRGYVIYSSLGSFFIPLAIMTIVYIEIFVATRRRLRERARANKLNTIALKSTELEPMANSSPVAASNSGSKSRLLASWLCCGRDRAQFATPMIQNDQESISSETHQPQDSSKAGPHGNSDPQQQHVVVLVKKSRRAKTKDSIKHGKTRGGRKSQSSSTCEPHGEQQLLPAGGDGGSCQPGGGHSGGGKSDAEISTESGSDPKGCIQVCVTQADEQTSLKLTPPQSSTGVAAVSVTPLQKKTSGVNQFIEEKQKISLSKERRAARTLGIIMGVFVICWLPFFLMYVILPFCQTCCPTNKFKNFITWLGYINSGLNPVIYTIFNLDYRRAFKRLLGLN

## Cc1ccc(C(C)C)cc1 [p-cymene, 1-methyl-4-(1-methylethyl)benzene]
[1]; in vivo
  % Mortality at LD50 of wild type Drosophila melanogaster strain: TyrR^neo30: 56.0%
[1]
  toxicity against TyrR^neo30 strain compared with wild type: does not affect the toxicity
[2]; 300 μM IBMX
  decrease in cAMP production: 13%
[3]
  change in [Ca2+]i in response to plant essential oil: slight increase in [Ca^2+]i
[4]
  Wild type-calculated LD50 values: 15.5 μg/fly
  % Mortality at LD50 of wild type Drosophila melanogaster strain: Wild type: 57.3%

## NCCc1c[nH]c2ccc(O)cc12 [Serotonin (SE), Serotonin]
[5]
  Ki: 89.5 ± 9.01 µM

## CC(=O)OCOC(=O)CN(CC(=O)OCOC(C)=O)c1ccccc1OCCOc1ccccc1N(CC(=O)OCOC(C)=O)CC(=O)OCOC(C)=O [BAPTA/AM]
[3]; 20 μM BAPTA/AM, 1 μM TA
  effect on TA-induced increase in free [Ca2+]i: inhibit the increase in free [Ca^2+]i

## COC(=O)[C@@H]1[C@H]2C[C@H]3c4[nH]c5ccccc5c4CCN3C[C@@H]2CC[C@@H]1O [Yohimbine]
[5]
  Ki: 0.071 ± 0.001 µM

## NCCc1ccc(O)cc1 [Tyramine (TA), Tyramine]
[6]
  effect on cAMP levels in control cells: significant effects on cAMP levels as compared to non-transfected cells are not produced
[2]
  IC50: 5.8 µM
[2]; TA 10 μM, 300 μM IBMX, basal 0.601±0.080 pmol cAMP
  decrease in the basal level of cAMP: 18%
[3]; 1 μM TA, clone#2 cells
  change in [Ca2+]i in response to TA: rapid increase in [Ca^2+]i
[3]; TA application
  duration of transient peak in [Ca2+]i level: ~20 s
[3]; clone#2 cells
  lowest concentration that can increase [Ca2+]i levels: 20 nM
[7]
  effect on [Ca2+]i in control cells: does not increase the level of [Ca^2+]i
[5]
  Ki: 1.27 µM
[5]; ratio of Ki values
  affinity of TA relative to DL-octopamine for TyrR: about 22.58 fold

## NCCc1ccc(O)cc1 [^3H-tyramine]
[8]
  Kd: 2.56 nM

## Cc1ccc(N(CC2=NCCN2)c2cccc(O)c2)cc1 [Phentolamine]
[5]
  Ki: 0.125 ± 0.02 µM

## NCCc1c[nH]cn1 [Histamine (His), Histamine]
[5]
  Ki: 193 ± 16.8 µM

## C=C(C)[C@@H]1CC=C(C)C(=O)C1 [L-carvone, p-mentha-6,8-dien-2-one]
[1]
  toxicity against TyrR^neo30 strain compared with wild type: does not affect the toxicity
[1]; topical dose equal to wild type LD50, 24 h after treatment
  % Mortality at LD50 of wild type Drosophila melanogaster strain: TyrR^neo30: 38.7%
[2]; 300 μM IBMX
  decrease in cAMP production: 24%
[3]
  change in [Ca2+]i in response to plant essential oil: remarkable increase in [Ca^2+]i
[4]
  Wild type-calculated LD50 values: 2.3 μg/fly
  % Mortality at LD50 of wild type Drosophila melanogaster strain: Wild type: 37.3%
[4]; wild type strain
  toxicity of L-carvone relative to a-terpineol: about 5 fold

## NCC(O)c1ccc(O)cc1 (racemic) [Octopamine (OA), DL-octopamine]
[5]; competitive binding vs 4 nM 3H-tyramine, membranes from Schneider Drosophila cells expressing TyrR, mean and standard deviation, read-out: Ki
  Ki: 28.7 µM

## CN(C)CCCN1c2ccccc2Sc2ccc(Cl)cc21 [Chlorpromazine]
[5]
  Ki: 0.193 ± 0.05 µM

## CC1=CCC(C(C)(C)O)CC1 (stereo not drawn) [a-terpineol, p-menth-1-en-8-ol]
[2]; 300 μM IBMX
  decrease in cAMP production: 22%
[3]
  change in [Ca2+]i in response to plant essential oil: remarkable increase in [Ca^2+]i

## NCCc1ccc(O)c(O)c1 [Dopamine (DA), Dopamine]
[5]
  Ki: 57.5 ± 3.91 µM
